The test system of one data set is HTLV-III. Put plainly: Antiviral activity: protection of target T cells against the cytopathic effects of HTLV-III. The settings on record: Human immunodeficiency virus 1, T-cell; target T cells infected with HTLV-III; protection at 10µM and above; read-out: concentrations found to protect target T cells against the cytopathic effects of HTLV-III. The format is cell-based. How it is done:
The compound of formula (1) in which R^1, R^2 and R^3 each represent a hydrogen atom was tested and found to protect target T cells against the cytopathic effects of HTLV-III at concentrations of 10µM and above.
Background: Protection from cytopathic effect is a common read-out in antiviral testing.

Data set [1] is described as follows: Toxicity: cytotoxicity in FE-10 cells. The settings on record: FE-10 (mouse modified 3T3) cells, no cytotoxicity up to 100µM, read-out: concentrations at which no cytotoxicity was observed. The format is cell-based.

Where only a bound is given, the exact number is not on record here.

As for `O=C(O)P(=O)(O)O` [phosphonoformic acid], the minimal effective concentration with HTLV-III was no less than 10 µM. The MNTC in data set [1] is no less than 100 µM.

Source of the values: EP0192327A2, “Use of phosphonoformic acid and its esters and salts for the manufacture of a medicament for the treatment of AIDS” (THE WELLCOME FOUNDATION LIMITED, priority 1985, dated 1986).
